Test results reported in ChEMBL document CHEMBL1152929, “Dapholdhamines A-D, alkaloids from Daphniphyllum oldhami” (J Nat Prod, 2009).
The source made the active and inactive calls.

How the values were obtained:
Assay type in all cases: functional, cell-based
SW480 = assay: Cytotoxicity against human SW480 cells
KB = assay: Cytotoxicity against human KB cells
HT-29 = assay: Cytotoxicity against human HT-29 cells
HL-60 = assay: Cytotoxicity against human HL60 cells
K562 = assay: Cytotoxicity against human K562 cells
HCT-116 = assay: Cytotoxicity against human HCT116 cells

Measured: Activity

COC(=O)c1c2ccoc3c-2c2c1C(=O)[C@]1(O)C[C@@]4(O)N(C[C@@H](CC3)[C@@]24C)C[C@H]1C
inactive: all assays above

CC(C)[C@H]1CC[C@@]2(C)[C@H]3C[C@@H]4[C@H]5CCC[C@@]4(O)[C@@]2(CCC(=O)O)[C@@H]1N5C3
inactive: all assays above

COC(=O)c1c2ccoc3c-2c2c1C(=O)[C@]1(O)CC4(CC(C)=O)N(C[C@@H](CC3)[C@@]24C)C[C@H]1C
inactive: all assays above

C[C@@H]1CN2C3[C@@H]4CC[C@@]35CCC[C@H]5[C@@]3(CCC(=O)O)[C@H]2[C@]1(O)CC[C@@]43C
inactive: all assays above
